Values of other authors in PubChem BioAssay AID1259409 (Chemical Carcinogenesis Research Information System (CCRIS), 2018).
Several values for one entry are separate records, joined by “and”; a condition that tells them apart may be missing. Equal values may be shown once.

System: rodent chemically induced tumor inhibition, incidence and multiplicity
Assay: CCRIS tumor inhibitor studies

CCCCCCCC/C=C\CCCCCCCC(=O)O
tumour outcome (control, treated, inhibition, significance) (Carcinogen: 1,2-DIMETHYLHYDRAZINE, 540-73-8, Dose [Inhibitor]: 0, 1 MG/D FOR 25 WK BEGINNING 3 WK PRIOR TO CARCINOGEN (STUDY DURATION: 25 WK), Route [Inhibitor]: ORAL, Species: RAT, Strain/Sex: CD-1/MALE, Target Tissue: Type of Lesion: COLON: TUMOR, Dose [Carcinogen]: 15 MG/KG 1/WK FOR 16 WK): 17/22 (77%), 19/22 (86%), -12%, not significant | tumour outcome (control, treated, inhibition, significance) (Carcinogen: BENZO[A]PYRENE, 50-32-8, Dose [Inhibitor]: 25 MG IN 0.1 ML ACETONE 3/WK ADMINISTERED SIMULTANEOUSLY WITH CARCINOGEN FOR DURATION OF STUDY (STUDY DURATION: 440 D), Route [Inhibitor]: DERMAL, Species: MOUSE, Strain/Sex: ICR/FEMALE, Target Tissue: Type of Lesion: SKIN: PAPILLOMA, Dose [Carcinogen]: 5 UG IN 0.1 ML ACETONE 3/WK FOR DURATION OF STUDY, Promoter: NONE USED): 16/50 (32%), 0/50 (0%), 100%, not calculated | tumour outcome (control, treated, inhibition, significance) (Carcinogen: BENZO[A]PYRENE, 50-32-8, Dose [Inhibitor]: 25 MG IN 0.1 ML ACETONE 3/WK ADMINISTERED SIMULTANEOUSLY WITH CARCINOGEN FOR DURATION OF STUDY (STUDY DURATION: 440 D), Route [Inhibitor]: DERMAL, Species: MOUSE, Strain/Sex: ICR/FEMALE, Target Tissue: Type of Lesion: SKIN: SQUAMOUS CARCINOMA, Dose [Carcinogen]: 5 UG IN 0.1 ML ACETONE 3/WK FOR DURATION OF STUDY, Promoter: NONE USED): 12/50 (24%), 0/50 (0%), 100%, not calculated

CC(=O)Oc1ccccc1C(=O)Oc1ccccc1C(=O)O
tumour outcome (control, treated, inhibition, significance) (Carcinogen: NONE USED, Dose [Inhibitor]: 0, 0.1% IN CHOLINE-DEFICIENT DIET FOR 30 WK (STUDY DURATION: 30 WK), Route [Inhibitor]: ORAL, Species: RAT, Strain/Sex: F344/MALE, Target Tissue: Type of Lesion: LIVER: NEOPLASTIC NODULE, Promoter: NONE USED): 8/8 (100%), 10/10 (100%), 0%, not significant and 4/4 (100%), 3/3 (100%), 0%, not significant | tumour outcome (control, treated, inhibition, significance) (Carcinogen: NONE USED, Dose [Inhibitor]: 0, 0.2% IN CHOLINE-DEFICIENT DIET FOR 30 WK (STUDY DURATION: 30 WK), Route [Inhibitor]: ORAL, Species: RAT, Strain/Sex: F344/MALE, Target Tissue: Type of Lesion: LIVER: NEOPLASTIC NODULE, Promoter: NONE USED): 8/8 (100%), 4/11 (36%), 64%, p<0.05 and 4/4 (100%), 3/3 (100%), 0%, not significant | tumour outcome (control, treated, inhibition, significance) (Carcinogen: NONE USED, Dose [Inhibitor]: 0, 0.4% IN CHOLINE-DEFICIENT DIET FOR 30 WK (STUDY DURATION: 30 WK), Route [Inhibitor]: ORAL, Species: RAT, Strain/Sex: F344/MALE, Target Tissue: Type of Lesion: LIVER: NEOPLASTIC NODULE, Promoter: NONE USED): 4/4 (100%), 0/4 (0%), 100%, p<0.05 | tumour outcome (control, treated, inhibition, significance) (Carcinogen: NONE USED, Dose [Inhibitor]: 0, 0.8% IN CHOLINE-DEFICIENT DIET FOR 30 WK (STUDY DURATION: 30 WK), Route [Inhibitor]: ORAL, Species: RAT, Strain/Sex: F344/MALE, Target Tissue: Type of Lesion: LIVER: NEOPLASTIC NODULE, Promoter: NONE USED): 4/4 (100%), 0/3 (0%), 100%, p<0.05

CC[C@H](C)C(=O)O[C@H]1C[C@@H](C)C=C2C=C[C@H](C)[C@H](CC[C@@H]3C[C@@H](O)CC(=O)O3)[C@H]21
tumour outcome (control, treated, inhibition, significance) (Carcinogen: 4-(N-METHYL-N-NITROSAMINO)-1-(3-PYRIDYL)-1-BUTANONE, 64091-91-4, Dose [Inhibitor]: 0, 40 PPM IN THE DIET FOR 6 MO BEGINNING 1 WK POST CARCINOGEN DOSE (STUDY DURATION: 6 MO), Route [Inhibitor]: ORAL, Species: MOUSE, Strain/Sex: STRAIN-A/MALE, Target Tissue: Type of Lesion: LUNG: TUMOR, Dose [Carcinogen]: 10 UMOL ONCE, Promoter: NONE USED): 15/15 (100%), 15/15 (100%), 0%, not significant | tumour outcome (control, treated, inhibition, significance) (Carcinogen: 4-(N-METHYL-N-NITROSAMINO)-1-(3-PYRIDYL)-1-BUTANONE, 64091-91-4, Dose [Inhibitor]: 0, 160 PPM IN THE DIET FOR 6 MO BEGINNING 1 WK POST CARCINOGEN DOSE (STUDY DURATION: 6 MO), Route [Inhibitor]: ORAL, Species: MOUSE, Strain/Sex: STRAIN-A/MALE, Target Tissue: Type of Lesion: LUNG: TUMOR, Dose [Carcinogen]: 10 UMOL ONCE, Promoter: NONE USED): 15/15 (100%), 15/15 (100%), 0%, not significant | tumour outcome (control, treated, inhibition, significance) (Carcinogen: 4-(N-METHYL-N-NITROSAMINO)-1-(3-PYRIDYL)-1-BUTANONE, 64091-91-4, Dose [Inhibitor]: 0, 400 PPM IN THE DIET FOR 6 MO BEGINNING 1 WK POST CARCINOGEN DOSE (STUDY DURATION: 6 MO), Route [Inhibitor]: ORAL, Species: MOUSE, Strain/Sex: STRAIN-A/MALE, Target Tissue: Type of Lesion: LUNG: TUMOR, Dose [Carcinogen]: 10 UMOL ONCE, Promoter: NONE USED): 15/15 (100%), 12/14 (86%), 14%, not significant

CC(O)CCCc1ccccc1 (configuration not stated)
tumour outcome (control, treated, inhibition, significance) (Carcinogen: 4-(METHYLNITROSAMINO)-1-(3-PYRIDYL)-1-BUTANONE, 64091-91-4, Dose [Inhibitor]: 0, 25 UMOL IN 0.1 ML CORN OIL ONCE 2 HR PRIOR TO CARCINOGEN DOSE (STUDY DURATION: 16 WK), Route [Inhibitor]: GAVAGE, Species: MOUSE, Strain/Sex: STRAIN-A/FEMALE, Target Tissue: Type of Lesion: LUNG: TUMOR, Dose [Carcinogen]: 10 UMOL IN 0.1 ML SALINE ONCE, Promoter: NONE USED): 100%, 100%, 0%, not significant

CCCCC1OC(=O)C2=CCCCC21 (configuration not stated)
tumour outcome (control, treated, inhibition, significance) (Carcinogen: BENZO[A]PYRENE, 50-32-8, Dose [Inhibitor]: 0, 20 MG 3/WK FOR 4 WK ON DAYS OTHER THAN THE CARCINOGEN TREATMENT (STUDY DURATION: 20 WK), Route [Inhibitor]: GAVAGE, Species: MOUSE, Strain/Sex: STRAIN-A/FEMALE, Target Tissue: Type of Lesion: FORESTOMACH: TUMOR, Dose [Carcinogen]: 1 MG IN 0.2 ML COTTONSEED OIL 2/WK FOR 4 WK, Promoter: NONE USED): 13/19 (68%), 2/18 (11%), 84%, p<0.025
